Assay results from patent US6124269A, “2-Halo-6-O-substituted ketolide derivatives” (priority 1998, dated 2000).
Values after ≈ are worked out from the molar mass of the structure shown.

Legend:
Format in all cases: cell-based
[1] = tested on: Escherichia coli DC-2; assay: In vitro agar dilution MIC, organism code SS; details: Table 1B, unit assumed
Method: (§1) Representative compounds of the present invention were assayed in vitro for antibacterial activity as follows: Twelve petri dishes containing successive aqueous dilutions of the test compound mixed with 10 mL of sterilized Brain Heart Infusion (BHI) agar (Difco 0418-01-5) were prepared. Each plate was inoculated with 1:100 (or 1:10 for slow-growing strains, such as Micrococcus and Streptococcus) dilutions of up to 32 different microorganisms, using a Steers replicator block. The inoculated plates were incubated at 35-37° C. for 20 to 24 hours. In addition, a control plate, using BHI agar containing no test compound, was prepared and incubated at the beginning and end of each test.
(§2) An additional plate containing a compound having known susceptibility patterns for the organisms being tested and belonging to the same antibiotic class as the test compound was also prepared and incubated as a further control, as well as to provide test-to-test comparability.
(§3) After incubation, each plate was visually inspected. The minimum inhibitory concentration (MIC) was defined as the lowest concentration of drug yielding no growth, a slight haze, or sparsely isolated colonies on the inoculum spot as compared to the growth control.

[2] = tested on: Streptococcus agalactiae CMX 508; assay: In vitro agar dilution MIC, organism code KK; details: Table 1B, unit assumed
Method: as §1, §2, §3

[3] = tested on: Staphylococcus aureus CMX 553; assay: In vitro agar dilution MIC, organism code FF; details: Table 1B, unit assumed
Method: as §1, §2, §3

[4] = tested on: Escherichia coli JUHL; assay: In vitro agar dilution MIC, organism code QQ; details: Table 1B, in µg/mL (unit assumed)
Method: as §1, §2, §3

[5] = tested on: Enterococcus faecium ATCC 8043; assay: In vitro agar dilution MIC, organism code II; details: Table 1B, unit assumed
Method: as §1, §2, §3

[6] = tested on: Streptococcus pneumoniae 5649; assay: In vitro agar dilution MIC, organism code ZZA; details: Table 1B, unit assumed
Method: as §1, §2, §3

[7] = tested on: Staphylococcus aureus CMX 642A; assay: In vitro agar dilution MIC, organism code DD; details: Table 1B, unit assumed
Method: as §1, §2, §3

[8] = tested on: Micrococcus luteus ATCC 9341; assay: In vitro agar dilution MIC, organism code OO; details: Table 1B, unit assumed
Method: as §1, §2, §3

[9] = tested on: Streptococcus pneumoniae ATCC 6303; assay: In vitro agar dilution MIC, organism code XX; details: Table 1B, unit assumed
Method: as §1, §2, §3

[10] = tested on: Candida albicans CCH 442; assay: In vitro agar dilution MIC, organism code TT; details: Table 1B, unit assumed
Method: as §1, §2, §3

[11] = tested on: Streptococcus pyogenes 930; assay: In vitro agar dilution MIC, organism code MM; details: Table 1B, unit assumed
Method: as §1, §2, §3

[12] = tested on: Streptococcus bovis A-5169; assay: In vitro agar dilution MIC, organism code JJ; details: Table 1B, unit assumed
Method: as §1, §2, §3

[13] = tested on: Escherichia coli SS; assay: In vitro agar dilution MIC, organism code RR; details: Table 1B, in µg/mL (unit assumed)
Method: as §1, §2, §3

[14] = tested on: Staphylococcus aureus A-5278; assay: In vitro agar dilution MIC, organism code CC; details: Table 1B, unit assumed
Method: as §1, §2, §3

[15] = tested on: Staphylococcus epidermidis 3519; assay: In vitro agar dilution MIC, organism code HH; details: Table 1B, in µg/mL (unit assumed)
Method: as §1, §2, §3

[16] = tested on: Streptococcus pyogenes PIU 2548; assay: In vitro agar dilution MIC, organism code NN; details: Table 1B, unit assumed
Method: as §1, §2, §3

[17] = tested on: Micrococcus luteus ATCC 4698; assay: In vitro agar dilution MIC, organism code PP; details: Table 1B, in µg/mL (unit assumed)
Method: as §1, §2, §3

[18] = tested on: Streptococcus pneumoniae GYR 1171; assay: In vitro agar dilution MIC, organism code YY; details: Table 1B, unit assumed
Method: as §1, §2, §3

[19] = tested on: Streptococcus pneumoniae 5979; assay: In vitro agar dilution MIC, organism code ZZ; details: Table 1B, unit assumed
Method: as §1, §2, §3

[20] = tested on: Staphylococcus aureus ATCC 6538P; assay: In vitro agar dilution MIC, organism code AA; details: Table 1B, unit assumed
Method: as §1, §2, §3

[21] = tested on: Staphylococcus aureus 1775; assay: In vitro agar dilution MIC, organism code GG; details: Table 1B, unit assumed
Method: as §1, §2, §3

[22] = tested on: Staphylococcus aureus NCTC10649M; assay: In vitro agar dilution MIC, organism code EE; details: Table 1B, unit assumed
Method: as §1, §2, §3

[23] = tested on: Haemophilis influenzae DILL AMP R; assay: In vitro agar dilution MIC, organism code WW; details: Table 1B, unit assumed
Method: as §1, §2, §3

[24] = tested on: Mycobacterium smegmatis ATCC 114; assay: In vitro agar dilution MIC, organism code UU; details: Table 1B, in µg/mL (unit assumed)
Method: as §1, §2, §3

[25] = tested on: Streptococcus pyogenes EES61; assay: In vitro agar dilution MIC, organism code LL; details: Table 1B, unit assumed
Method: as §1, §2, §3

[26] = tested on: Nocardia asteroides ATCC 9970; assay: In vitro agar dilution MIC, organism code VV; details: Table 1B, in µg/mL (unit assumed)
Method: as §1
as §2, with “comparability. Erythromycin A was used for this purpose.” for “comparability.”
as §3

[27] = tested on: Staphylococcus aureus A5177; assay: In vitro agar dilution MIC, organism code BB; details: Table 1B, in µg/mL (unit assumed)
Method: as §1, §2, §3

| Compound | MIC [1] | MIC [2] | MIC [3] | MIC [4] | MIC [5] | MIC [6] | MIC [7] | MIC [8] | MIC [9] | MIC [10] | MIC [11] | MIC [12] | MIC [13] | MIC [14] | MIC [15] | MIC [16] | MIC [17] | MIC [18] | MIC [19] | MIC [20] | further results |
| --- | --- | --- | --- | --- | --- | --- | --- | --- | --- | --- | --- | --- | --- | --- | --- | --- | --- | --- | --- | --- | --- |
| CC[C@H]1OC(=O)[C@@](C)(F)C(=O)[C@H](C)[C@@H](O[C@@H]2O[C@H](C)C[C@H](N(C)C)[C@H]2O)[C@](C)(OC/C=C/c2cnc3ccc(C=O)cc3c2)C[C@@H](C)C(=O)[C@H](C)[C@H]2NC(=O)O[C@@]21C [Example 17] | 100 µg/mL (≈ 123 µM) | 0.02 µg/mL (≈ 0.0246 µM) | 0.1 µg/mL (≈ 0.123 µM) | 100 | 0.05 µg/mL (≈ 0.0616 µM) | 0.5 µg/mL (≈ 0.616 µM) | 0.1 µg/mL (≈ 0.123 µM) | 0.02 µg/mL (≈ 0.0246 µM) | 0.03 µg/mL (≈ 0.0369 µM) | > 100 µg/mL | 0.78 µg/mL (≈ 0.961 µM) | 0.01 µg/mL (≈ 0.0123 µM) | 0.78 | > 100 µg/mL | 0.1 | 0.2 µg/mL (≈ 0.246 µM) | 0.05 | 0.015 µg/mL (≈ 0.0185 µM) | 1 µg/mL (≈ 1.23 µM) | 0.05 µg/mL (≈ 0.0616 µM) | MIC [21]: > 100 µg/mL; MIC [22]: 0.2 µg/mL (≈ 0.246 µM); MIC [23]: 2 µg/mL (≈ 2.46 µM); MIC [24]: 0.39; MIC [25]: 0.02 µg/mL (≈ 0.0246 µM); MIC [26]: 0.02; MIC [27]: 0.1 |
| CC[C@H]1OC(=O)[C@@](C)(F)C(=O)[C@H](C)[C@@H](O[C@@H]2O[C@H](C)C[C@H](N(C)C)[C@H]2O)[C@](C)(OC/C=C/c2cnc3ccc(C=NO)cc3c2)C[C@@H](C)C(=O)[C@H](C)[C@H]2NC(=O)O[C@@]21C [Example 18] | 50 µg/mL (≈ 60.5 µM) | 0.01 µg/mL (≈ 0.0121 µM) | 0.05 µg/mL (≈ 0.0605 µM) | 25 | 0.02 µg/mL (≈ 0.0242 µM) | 0.25 µg/mL (≈ 0.302 µM) | 0.05 µg/mL (≈ 0.0605 µM) | 0.01 µg/mL (≈ 0.0121 µM) | 0.015 µg/mL (≈ 0.0181 µM) | > 100 µg/mL | 0.2 µg/mL (≈ 0.242 µM) | ≤ 0.005 µg/mL | 0.2 | 50 µg/mL (≈ 60.5 µM) | 0.05 | 0.02 µg/mL (≈ 0.0242 µM) | 0.02 | 0.015 µg/mL (≈ 0.0181 µM) | 0.25 µg/mL (≈ 0.302 µM) | 0.02 µg/mL (≈ 0.0242 µM) | MIC [21]: 50 µg/mL (≈ 60.5 µM); MIC [22]: 0.05 µg/mL (≈ 0.0605 µM); MIC [23]: 2 µg/mL (≈ 2.42 µM); MIC [24]: 0.78; MIC [25]: ≤ 0.005 µg/mL; MIC [26]: 0.01; MIC [27]: 0.05 |
| CC[C@H]1OC(=O)C(C)(F)C(=O)[C@H](C)[C@@H](O[C@@H]2O[C@H](C)C[C@H](N(C)C)[C@H]2O)[C@](C)(OCC#Cc2cnc3ccccc3c2)C[C@@H](C)C(=O)[C@H](C)[C@H]2NC(=O)O[C@@]21C (stereo partly drawn) [Example 26] | 25 µg/mL (≈ 32 µM) | 0.02 µg/mL (≈ 0.0256 µM) | 0.05 µg/mL (≈ 0.0639 µM) | 25 | 0.02 µg/mL (≈ 0.0256 µM) | 0.25 µg/mL (≈ 0.32 µM) | 0.05 µg/mL (≈ 0.0639 µM) | 0.02 µg/mL (≈ 0.0256 µM) | ≤ 0.004 µg/mL | > 100 µg/mL | 0.1 µg/mL (≈ 0.128 µM) | 0.01 µg/mL (≈ 0.0128 µM) | 0.2 | > 100 µg/mL | 0.05 | 0.05 µg/mL (≈ 0.0639 µM) | 0.05 | ≤ 0.004 µg/mL | 16 µg/mL (≈ 20.5 µM) | 0.05 µg/mL (≈ 0.0639 µM) | MIC [21]: > 100 µg/mL; MIC [22]: 0.1 µg/mL (≈ 0.128 µM); MIC [23]: 2 µg/mL (≈ 2.56 µM); MIC [24]: 0.2; MIC [25]: 0.02 µg/mL (≈ 0.0256 µM); MIC [26]: 0.01; MIC [27]: 0.05 |
